The values that follow come from patent publication US4994440A, “Method for the treatment of renal cell carcinoma” (priority 1989, dated 1991).

The test system of the test is metastatic renal cell carcinoma. The experiment in a line: Treatment of patients with metastatic renal cell carcinoma by 1 hour infusion of the liposomal composition. The format is in vivo, man. Conditions: a patient with renal cell carcinoma with multiple small pulmonary metastases. On the procedure:
12 patients diagnosed as having metastatic renal cell carcinoma were given the liposomal composition in accordance with Example 2 at various dosage levels of the active ingredient by 1 hour infusion in 50 ml of isotonic saline through a safety filter twice a week for a total of 8 doses.

For the molecule `CCCCCCCCCCCCCCCC(=O)OCC(COP(=O)([O-])OCCNC(=O)C(C)NC(=O)CCC(NC(=O)C(C)NC(=O)C(C)OC1C(O)C(CO)OC(O)C1NC(C)=O)C(N)=O)OC(=O)CCCCCCCCCCCCCCC.[Na+]` [N-acetylmuramyl-L-alanyl-D-isoglutaminyl-L-alanine-2-(1,2-dipalmitoyl-sn-glycero-3-hydroxyphosphoryloxy)ethylamide monosodium salt], the size of lesions entry is on record as “reduce the size of lesions”.
